Results on two compounds are retold here after PMC4016240, “Flavonoids with α-glucosidase inhibitory activities and their contents in the leaves of Morus atropurpurea” (Chinese Medicine, 2013).

What is called IC50 is the point on the concentration scale where inhibition reaches its midpoint. Low readings indicate greater potency, high ones weaker potency.

Each structure is given as a SMILES string.

The target in the experiment is T1, yeast α-glucosidase (Saccharomyces cerevisiae, UniProt P53341).
T1 construct: purchased Sigma-Aldrich
T1 sequence (P53341 whole entry): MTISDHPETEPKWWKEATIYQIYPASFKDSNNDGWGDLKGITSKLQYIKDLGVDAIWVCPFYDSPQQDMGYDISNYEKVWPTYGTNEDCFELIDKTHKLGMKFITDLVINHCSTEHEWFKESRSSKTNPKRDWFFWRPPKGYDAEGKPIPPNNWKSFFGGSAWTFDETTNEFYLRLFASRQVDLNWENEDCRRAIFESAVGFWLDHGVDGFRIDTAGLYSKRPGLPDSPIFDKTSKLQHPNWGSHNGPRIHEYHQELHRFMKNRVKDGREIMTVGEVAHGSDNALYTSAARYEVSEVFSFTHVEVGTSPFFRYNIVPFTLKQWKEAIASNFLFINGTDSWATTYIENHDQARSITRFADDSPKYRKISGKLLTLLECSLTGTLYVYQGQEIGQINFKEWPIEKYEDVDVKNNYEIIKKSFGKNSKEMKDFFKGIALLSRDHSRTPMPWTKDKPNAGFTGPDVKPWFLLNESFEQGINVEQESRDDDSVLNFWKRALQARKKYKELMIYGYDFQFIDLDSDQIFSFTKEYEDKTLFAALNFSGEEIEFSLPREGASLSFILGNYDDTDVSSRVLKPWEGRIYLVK
Briefly: microplate-based α-glucosidase inhibition assay (pNPG substrate). To be noted: pH 6.8, 37°C, 30 min, means ± SD, n = 3. Format: biochemical, Saccharomyces cerevisias. The source says:
Acetonitrile (HPLC grade) and acetic acid (HPLC grade) were purchased from Merck (Darmstadt, Germany), and methanol (AR grade) was purchased from Kaitong (Tianjin, China). Sodium carbonate was purchased from BDH Laboratory Supplies (Poole, Dorset, UK). α-Glucosidase type 1 ([…] from Saccharomyces cerevisias) and 4-nitrophenyl α-D-glucopyranoside (pNPG) were purchased from Sigma-Aldrich (St. Louis, MO, USA). Ultra-pure water was purified using a Millipore Milli Q-Plus system (Billerica, MA, USA). […] Silica gel (200–300 mesh) was purchased from Qingdao Haiyang Chemical Co. Ltd. (Qingdao, China). Macroporous absorption resin (D101) was purchased from Haiguang Chemical Industrial Co. (Tianjin, China). Sephadex LH-20 was purchased from GE Healthcare Bio-Sciences AB (Uppsala, Sweden), and the Millex® nylon membrane syringe filter was purchased from Millipore (Billerica, MA, USA).
The yeast α-glucosidase inhibitory activities of the four flavonoids were determined by a microplate-based method with a slight modification. […] The 4-nitrophenol absorption was measured at 405 nm. […] The inhibitory activity was calculated using the following formula: […]
where AS, ASB, AC, and ACB are the absorbances of sample, sample blank, control, and control blank, respectively.

`C[C@@H]1O[C@@H](OC[C@H]2O[C@@H](Oc3c(-c4ccc(O)c(O)c4)oc4cc(O)cc(O)c4c3=O)[C@H](O)[C@@H](O)[C@@H]2O)[C@H](O)[C@H](O)[C@H]1O` [flavonoid 1, rutin] came in with an IC50 of 13.2 µM.

Take `O=c1c(O[C@@H]2O[C@H](CO)[C@@H](O)[C@H](O)[C@H]2O)c(-c2ccc(O)c(O)c2)oc2cc(O)cc(O)c12` [flavonoid 2, isoquercetin]: the half-maximal inhibitory concentration (IC50) came to 117 µM.
